Source: US8575091B1, “Amylin analogues and pharmaceutical compositions thereof” (Novo Nordisk A/S, priority 2012, dated 2013)
Read-outs that look alike come from different tables or passages of the source. Numbered stars: 1 amine (or outer) side, 2 acyl side, 3 side chain; on linkers, the order of the positions; unused ones are H or OH. Bridge positions count the residues as written; N and C are the ends. Side chains are listed from the residue outwards. Peptide text beside a SMILES is read from it. * marks the point of attachment. C20 diacid = O=C(O)CCCCCCCCCCCCCCCCCCC(=O)*; γGlu = O=C(O)[C@H](CCC(=O)[*:2])N[*:1]; AEEA = NCCOCCOCC(=O)O

Key:
[1] = target: T1, human amylin receptor (amylin 3(a) receptor: human calcitonin receptor + RAMP-3) (Homo sapiens, UniProt O60896+P30988); experiment: Assay (II)a functional assay, human amylin receptor (CRE luciferase, BHK cells); assay type: cell-based; details: for EC50: read-out: hAmylin-R funct. EC50
T1 construct: expressed in transfected cells
T1 sequence (P30988 25-474): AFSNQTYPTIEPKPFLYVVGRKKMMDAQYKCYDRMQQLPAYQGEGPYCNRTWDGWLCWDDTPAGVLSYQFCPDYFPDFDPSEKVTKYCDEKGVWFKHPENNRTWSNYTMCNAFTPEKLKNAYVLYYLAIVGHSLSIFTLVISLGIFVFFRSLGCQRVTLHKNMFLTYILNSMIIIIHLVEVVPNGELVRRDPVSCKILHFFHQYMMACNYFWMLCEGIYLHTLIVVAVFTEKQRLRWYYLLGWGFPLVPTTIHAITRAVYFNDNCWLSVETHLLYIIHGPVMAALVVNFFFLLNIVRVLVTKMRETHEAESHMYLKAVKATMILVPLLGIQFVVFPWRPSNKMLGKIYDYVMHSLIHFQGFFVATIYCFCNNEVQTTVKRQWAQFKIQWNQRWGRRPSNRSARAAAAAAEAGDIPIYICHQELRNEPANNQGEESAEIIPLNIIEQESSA
T1 sequence (O60896 24-148 partner): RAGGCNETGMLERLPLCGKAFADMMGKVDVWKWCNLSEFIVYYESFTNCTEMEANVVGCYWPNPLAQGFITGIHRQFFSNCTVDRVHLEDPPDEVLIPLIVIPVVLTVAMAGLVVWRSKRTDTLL

[2] = target: T2, human calcitonin receptor (Homo sapiens, UniProt P30988); experiment: Assay (VII) binding to the human calcitonin receptor (SPA, 125I-Calcitonin); details: read-out: hCTR bind IC50;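 further: cell membranes coupled to SPA beads, competitive displacement read by scintillation counting, IC50 derived from a one-site competition fit as a measure of receptor affinity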
T2 construct: expressed in transfected cells
T2 sequence (P30988 25-474): T1 sequence (P30988 25-474)

[3] = target: T2, human calcitonin receptor; experiment: Assay (II)a functional assay, human calcitonin receptor (CRE luciferase, BHK cells);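 further: luminescence from a CRE-driven luciferase reporter, read by single photon counting after cells were exposed to test samples for 3 h at 37 °C under 5% CO2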; assay type: cell-based; details: read-out: hCTR funct. EC50
[4] = target: T3, human amylin receptor (Homo sapiens, UniProt O60896+P30988); experiment: Assay (V) binding to the human amylin receptor (SPA, 125I-rat amylin); details: human amylin receptor membranes, SPA; read-out: hAmylin-R bind IC50
T3 construct: expressed in transfected cells
T3 sequence (P30988 25-474): T1 sequence (P30988 25-474)
T3 sequence (O60896 24-148 partner): T1 sequence (O60896 24-148 partner)
In short: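 SPA competition binding on membranes from Amylin 3(a)/CRE-luc cells, 35 ng/μL membranes with 0.05 mg/well beads. Buffer 50 mM Hepes pH 7.4, 1 mM CaCl2, 5 mM MgCl2, 0.1% OA, 0.02% Tween20. IC50 from one-site competition fit as affinity measure.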

[5] = Table 6, human functional selectivity (hCTR EC50 / hAmylin-R EC50)
[6] = functional assay, human amylin receptor
[7] = Table 6a, human functional selectivity (hCTR EC50 / hAmylin-R EC50), at least 5
[8] = Table 6j, hCTR funct. EC50 / hAmylin-R funct. EC50
[9] = Table 6k, hCTR funct. EC50 / hAmylin-R funct. EC50

Ratio hCT/hAmylin funct. [1, 5] | EC50 [1, 6] | IC50 [2] | EC50 [3] | IC50 [4] | Ratio hCT/hAmylin funct. [1, 7] | Ratio hCT/hAmylin funct. [1, 8] | EC50 ([1]; Table 6j, human amylin receptor functional) | Ratio hCT/hAmylin funct. [1, 9] | Ratio hCT/hAmylin funct. ([1]; Table 6i, hCTR funct. EC50 / hAmylin-R funct. EC50) | EC50 ([1]; Table 6i, human amylin receptor functional) | Structure (SMILES)
2.9 | 0.062 nM | 7.86 nM | 0.179 nM | 0.217 nM | – | – | – | – | – | – | CC[C@H](C)[C@H](NC(=O)[C@H](C)NC(=O)CNC(=O)[C@H](Cc1ccccc1)NC(=O)[C@H](CC(N)=O)NC(=O)[C@@H]1CCCN1C(=O)[C@H](CO)NC(=O)[C@H](CO)NC(=O)[C@H](Cc1c[nH]cn1)NC(=O)[C@H](CCCNC(=N)N)NC(=O)[C@H](CC(C)C)NC(=O)[C@H](Cc1ccccc1)NC(=O)[C@H](Cc1c[nH]cn1)NC(=O)[C@H](C)NC(=O)[C@H](CC(C)C)NC(=O)[C@H](CCCNC(=N)N)NC(=O)[C@H](CCC(N)=O)NC(=O)[C@@H](NC(=O)[C@H](C)NC(=O)[C@@H]1CSSC[C@H](NC(=O)[C@H](CCCNC(=N)N)NC(=O)CNC(=O)CC[C@H](NC(=O)CCCCCCCCCCCCCCCCCCC(=O)O)C(=O)O)C(=O)N[C@@H](CC(N)=O)C(=O)N[C@@H]([C@@H](C)O)C(=O)N[C@@H](C)C(=O)N[C@@H]([C@@H](C)O)C(=O)N1)[C@@H](C)O)C(=O)N1CCC[C@H]1C(=O)N[C@@H](CO)C(=O)N[C@@H](CO)C(=O)N[C@H](C(=O)N[C@@H](CC(N)=O)C(=O)N[C@H](C(=O)NCC(=O)N1CCC[C@H]1C(=O)N[C@@H](CC(N)=O)C(=O)N[C@H](C(=O)N[C@@H](Cc1ccc(O)cc1)C(N)=O)[C@@H](C)O)C(C)C)[C@@H](C)O [Example 102] ({C20 diacid-γGlu}-GRCNTATCATQRLAHFLRHSSPNFGAIPSSTNVGPNTY-NH2; disulfide 3-8)
– | 0.134 nM | 21.7 nM | 1.68 nM | 0.919 nM | – | – | – | – | – | – | CC[C@H](C)[C@H](NC(=O)[C@H](C)NC(=O)CNC(=O)[C@H](Cc1ccccc1)NC(=O)[C@H](CC(N)=O)NC(=O)[C@@H]1CCCN1C(=O)[C@H](CO)NC(=O)[C@H](CO)NC(=O)[C@H](Cc1c[nH]cn1)NC(=O)[C@H](CCCNC(=N)N)NC(=O)[C@H](CC(C)C)NC(=O)[C@H](Cc1ccccc1)NC(=O)[C@H](Cc1c[nH]cn1)NC(=O)[C@H](C)NC(=O)[C@H](CC(C)C)NC(=O)[C@H](CCCNC(=N)N)NC(=O)[C@H](CCC(N)=O)NC(=O)[C@@H](NC(=O)[C@H](C)NC(=O)[C@@H]1CSSC[C@H](NC(=O)[C@H](CCCCN)NC(=O)CC[C@H](NC(=O)CCCCCCCCCCCCCCCCCCC(=O)O)C(=O)O)C(=O)N[C@@H](CC(N)=O)C(=O)N[C@@H]([C@@H](C)O)C(=O)N[C@@H](C)C(=O)N[C@@H]([C@@H](C)O)C(=O)N1)[C@@H](C)O)C(=O)N1CCC[C@H]1C(=O)N[C@@H](CO)C(=O)N[C@@H](CO)C(=O)N[C@H](C(=O)N[C@@H](CC(N)=O)C(=O)N[C@H](C(=O)NCC(=O)N[C@@H](CO)C(=O)N[C@@H](CCC(=O)O)C(=O)N[C@H](C(=O)N[C@@H](Cc1ccc(O)cc1)C(N)=O)[C@@H](C)O)C(C)C)[C@@H](C)O [Example 30] ({C20 diacid-γGlu}-KCNTATCATQRLAHFLRHSSPNFGAIPSSTNVGSETY-NH2; disulfide 2-7)
9.8 | – | 5.38 nM | 0.625 nM | 0.052 nM | 9.8 | 9.8 | 0.064 nM | 9.8 | – | – | CC[C@H](C)[C@H](NC(=O)[C@H](C)NC(=O)CNC(=O)[C@H](Cc1ccccc1)NC(=O)[C@H](CC(N)=O)NC(=O)[C@@H]1CCCN1C(=O)[C@H](CO)NC(=O)[C@H](CO)NC(=O)[C@H](Cc1c[nH]cn1)NC(=O)[C@H](CCCNC(=N)N)NC(=O)[C@H](CC(C)C)NC(=O)[C@H](Cc1ccccc1)NC(=O)[C@H](CC(N)=O)NC(=O)[C@H](C)NC(=O)[C@H](CC(C)C)NC(=O)[C@H](CCCNC(=N)N)NC(=O)[C@H](CCC(N)=O)NC(=O)[C@@H](NC(=O)[C@H](C)NC(=O)[C@@H]1CSSC[C@H](NC(=O)[C@@H](N)CCCCNC(=O)COCCOCCNC(=O)CC[C@H](NC(=O)CCCCCCCCCCCCCCCCCCC(=O)O)C(=O)O)C(=O)N[C@@H](CC(N)=O)C(=O)N[C@@H]([C@@H](C)O)C(=O)N[C@@H](C)C(=O)N[C@@H]([C@@H](C)O)C(=O)N1)[C@@H](C)O)C(=O)N1CCC[C@H]1C(=O)N1CCC[C@H]1C(=O)N[C@@H](CO)C(=O)N[C@H](C(=O)N1CCC[C@H]1C(=O)N[C@H](C(=O)NCC(=O)N[C@@H](CO)C(=O)N[C@@H](CC(N)=O)C(=O)N[C@H](C(=O)N[C@@H](Cc1ccc(O)cc1)C(N)=O)[C@@H](C)O)C(C)C)[C@@H](C)O [Example 53] (H-K([AEEA-γGlu-C20 diacid])CNTATCATQRLANFLRHSSPNFGAIPPSTPVGSNTY-NH2; disulfide 2-7)
– | 0.028 nM | 24.3 nM | 1.09 nM | 1.04 nM | – | – | – | – | – | – | CC[C@H](C)[C@H](NC(=O)[C@H](C)NC(=O)CNC(=O)[C@H](Cc1ccccc1)NC(=O)[C@H](CC(N)=O)NC(=O)[C@@H]1CCCN1C(=O)[C@H](CO)NC(=O)[C@H](CO)NC(=O)[C@H](Cc1c[nH]cn1)NC(=O)[C@H](CCCNC(=N)N)NC(=O)[C@H](CC(C)C)NC(=O)[C@H](Cc1ccccc1)NC(=O)[C@H](CC(N)=O)NC(=O)[C@H](C)NC(=O)[C@H](CC(C)C)NC(=O)[C@H](CCCNC(=N)N)NC(=O)[C@H](CCC(N)=O)NC(=O)[C@@H](NC(=O)[C@H](C)NC(=O)[C@@H]1CSSC[C@H](NC(=O)[C@@H](N)CCCCNC(=O)CC[C@H](NC(=O)CCCCCCCCCCCCC(=O)O)C(=O)O)C(=O)N[C@@H](CC(N)=O)C(=O)N[C@@H]([C@@H](C)O)C(=O)N[C@@H](C)C(=O)N[C@@H]([C@@H](C)O)C(=O)N1)[C@@H](C)O)C(=O)N1CCC[C@H]1C(=O)N[C@@H](CO)C(=O)N[C@@H](CO)C(=O)N[C@H](C(=O)N[C@@H](CC(N)=O)C(=O)N[C@H](C(=O)NCC(=O)N[C@@H](Cc1c[nH]cn1)C(=O)N[C@@H](CC(N)=O)C(=O)N[C@H](C(=O)N[C@@H](Cc1ccc(O)cc1)C(N)=O)[C@@H](C)O)C(C)C)[C@@H](C)O [Example 112]
6.8 | – | 6.31 nM | 1.28 nM | 0.403 nM | 6.8 | 6.8 | – | 6.8 | 6.8 | 0.189 nM | CC[C@H](C)[C@H](NC(=O)[C@H](C)NC(=O)CNC(=O)[C@H](Cc1ccccc1)NC(=O)[C@H](CC(N)=O)NC(=O)[C@@H]1CCCN1C(=O)[C@H](CO)NC(=O)[C@H](CO)NC(=O)[C@H](Cc1c[nH]cn1)NC(=O)[C@H](CCCNC(=N)N)NC(=O)[C@H](CC(C)C)NC(=O)[C@H](Cc1ccccc1)NC(=O)[C@H](CCC(=O)O)NC(=O)[C@H](C)NC(=O)[C@H](CC(C)C)NC(=O)[C@H](CCCNC(=N)N)NC(=O)[C@H](CCC(N)=O)NC(=O)[C@@H](NC(=O)[C@H](C)NC(=O)[C@@H]1CSSC[C@H](NC(=O)[C@H](CCCCN)NC(=O)CC[C@H](NC(=O)CCCCCCCCCCCCCCCCCCC(=O)O)C(=O)O)C(=O)N[C@@H](CC(N)=O)C(=O)N[C@@H]([C@@H](C)O)C(=O)N[C@@H](C)C(=O)N[C@@H]([C@@H](C)O)C(=O)N1)[C@@H](C)O)C(=O)N1CCC[C@H]1C(=O)N[C@@H](CO)C(=O)N[C@@H](CO)C(=O)N[C@H](C(=O)N[C@@H](CC(N)=O)C(=O)N[C@H](C(=O)NCC(=O)N[C@@H](CCCCN)C(=O)N[C@@H](CC(N)=O)C(=O)N[C@H](C(=O)N[C@@H](Cc1ccc(O)cc1)C(N)=O)[C@@H](C)O)C(C)C)[C@@H](C)O [Example 36] ({C20 diacid-γGlu}-KCNTATCATQRLAEFLRHSSPNFGAIPSSTNVGKNTY-NH2; disulfide 2-7)
